Read-outs that look alike come from different tables or passages of the source.
Test system: primary rat mixed cortical cells
Assay: In vitro myelination assay (MBP positive myelin strands, fold myelin pixels above background)
Assay type: cell-based
Conditions: Rattus norvegicus; for fold induction at 1 µM: 1.0 μM compound; for fold induction at 10 µM: 10.0 μM compound
In short: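 P1 rat mixed cortical cultures (neurons, OPCs, oligodendrocytes, astrocytes, microglia) grown 14 days at 37 °C with compound, half-medium refreshed with compound on days 6 and 10. Fixed cells stained for MBP; MBP-positive myelin strand pixels per well quantified by automated imaging, reported as fold over no-compound baseline at 1.0 and 10.0 μM.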

[1] = relative to baseline of no added compound, read-out: Fold myelin pixels above background
[2] = relative to baseline of no added compound, read-out: Fold myelin pixels above background, 1.0 μM
[3] = relative to baseline of no added compound, read-out: Fold myelin pixels above background, 10.0 μM
[4] = read-out: Fold myelin pixels above background relative to baseline of no added compound

| Structure (SMILES) | fold induction at 1 µM [1] | fold induction at 10 µM [1] | fold induction at 1 µM [2] | fold induction at 10 µM [3] | further results |
| --- | --- | --- | --- | --- | --- |
| Cc1cc(Nc2ncn(-c3cc(F)cc(F)c3)n2)cc(N2CCC(C(=O)N3CCOCC3)CC2)c1 [Compound 589, [1-[3-[[1-(3,5-difluorophenyl)-1,2,4-triazol-3-yl]amino]-5-methyl-phenyl]-4-piperidyl]-morpholino-methanone] | 10 to 100 | ≤ 1 | – | – | – |
| CCOC(=O)CN1CCN(c2cc(C)cc(Nc3ncn(-c4cc(F)cc(F)c4)n3)c2)CC1 [Compound 72, ethyl 2-[4-[3-[[1-(3,5-difluorophenyl)-1,2,4-triazol-3-yl]amino]-5-methyl-phenyl]piperazin-1-yl]acetate] | – | – | 10 to 100 | 1 to 10 | – |
| Cc1cc(Nc2ncn(-c3cc(F)cc(F)c3)n2)cc([C@@]2(C)CNC(=O)O2)c1 (stereo in doubt) [Compound 658, 5-[3-[[1-(3,5-difluorophenyl)-1,2,4-triazol-3-yl]amino]-5-methyl-phenyl]-5-methyl-oxazolidin-2-one] | 10 to 100 | ≤ 1 | – | – | – |
| Fc1ccccc1-n1cnc(Nc2cc(C3CC3)cc(N3CCN(C4COC4)CC3)c2)n1 [Compound 225, N-[3-cyclopropyl-5-[4-(oxetan-3-yl)piperazin-1-yl]phenyl]-1-(2-fluorophenyl)-1,2,4-triazol-3-amine] | – | – | 100 to 1000 | 100 to 1000 | – |
| N#Cc1cc(Nc2ncn(-c3cc(F)cc(F)c3)n2)cc(N2CCOCC2)c1 [Compound 835, 3-[[1-(3,5-difluorophenyl)-1,2,4-triazol-3-yl]amino]-5-morpholino-benzonitrile] | – | – | – | – | fold induction at 1 µM [4]: 1 to 10; fold induction at 10 µM [4]: 10 to 100 |
| Cc1ccc(-n2cnc(Nc3cc(F)cc(N4CCN(C5COC5)CC4)c3)n2)cc1F [Compound 779, 1-(3-fluoro-4-methyl-phenyl)-N-[3-fluoro-5-[4-(oxetan-3-yl)piperazin-1-yl]phenyl]-1,2,4-triazol-3-amine] | 1 to 10 | 1 to 10 | – | – | – |
| Cc1cc(Nc2ncn(-c3cncc(Cl)c3)n2)cc(N2CCN(C3COC3)CC2)c1 [Compound 217, 1-(5-chloro-3-pyridyl)-N-[3-methyl-5-[4-(oxetan-3-yl)piperazin-1-yl]phenyl]-1,2,4-triazol-3-amine] | – | – | 10 to 100 | 10 to 100 | – |
| Cc1cc(N2CCOCC2)cc(Nc2ncn(-c3ccccn3)n2)c1F [Compound 307, N-(2-fluoro-3-methyl-5-morpholino-phenyl)-1-(2-pyridyl)-1,2,4-triazol-3-amine] | – | – | 1 to 10 | 10 to 100 | – |
| Cc1cc(Nc2ncn(-c3cccc(F)c3)n2)cc(NC2CCN(C3COC3)CC2)c1 [Compound 192, N3-[1-(3-fluorophenyl)-1,2,4-triazol-3-yl]-5-methyl-N1-[1-(oxetan-3-yl)-4-piperidyl]benzene-1,3-diamine] | – | – | 100 to 1000 | ≤ 1 | – |
| Cc1cc(Nc2ncn(-c3cc(F)cc(F)c3)n2)nc(N2CCCC(CO)C2)c1 (stereo not drawn) [Compound 815, [1-[6-[[1-(3,5-difluorophenyl)-1,2,4-triazol-3-yl]amino]-4-methyl-2-pyridyl]-3-piperidyl]methanol] | – | – | – | – | fold induction at 1 µM [4]: 1 to 10; fold induction at 10 µM [4]: 10 to 100 |
| Cc1cc(Nc2ncn(-c3ccccc3)n2)cc(N2CC(C)NCC2C)c1 (stereo not drawn) [Compound 21, N-[3-(2,5-dimethylpiperazin-1-yl)-5-methyl-phenyl]-1-phenyl-1,2,4-triazol-3-amine] | – | – | 10 to 100 | ≤ 1 | – |
| Cc1cc(Nc2ncn(-c3cc(F)cc(F)c3)n2)cc(OC2CCCN(C3COC3)C2)c1 (stereo not drawn) [Compound 620, 1-(3,5-difluorophenyl)-N-[3-methyl-5-[[1-(oxetan-3-yl)-3-piperidyl]oxy]phenyl]-1,2,4-triazol-3-amine] | 10 to 100 | 1 to 10 | – | – | – |
| Cc1cc(Nc2ncn(-c3cc(F)cc(F)c3)n2)cc(OCCN2CCOCC2)c1 [Compound 812, 1-(3,5-difluorophenyl)-N-[3-methyl-5-(2-morpholinoethoxy)phenyl]-1,2,4-triazol-3-amine] | – | – | – | – | fold induction at 1 µM [4]: 10 to 100; fold induction at 10 µM [4]: 10 to 100 |
| Cc1cc(Nc2ncn(-c3cccc(C#N)c3)n2)cc(N2CCN(C)CC2)c1 [Compound 499, 3-[3-[3-methyl-5-(4-methylpiperazin-1-yl)anilino]-1,2,4-triazol-1-yl]benzonitrile] | 100 to 1000 | 10 to 100 | – | – | – |
| COCCCN1CCN(c2cc(C)cc(Nc3ncn(-c4cc(F)cc(F)c4)n3)c2)CC1 [Compound 850, 1-(3,5-difluorophenyl)-N-[3-[4-(3-methoxypropyl)piperazin-1-yl]-5-methyl-phenyl]-1,2,4-triazol-3-amine] | – | – | – | – | fold induction at 1 µM [4]: 10 to 100; fold induction at 10 µM [4]: ≤ 1 |
| Fc1cc(Nc2ncn(-c3ccccc3)n2)cc(C2CCNC2)c1 (stereo not drawn) [Compound 452, N-(3-fluoro-5-pyrrolidin-3-yl-phenyl)-1-phenyl-1,2,4-triazol-3-amine] | 10 to 100 | ≤ 1 | – | – | – |
| CN1CCCN(c2cc(F)cc(Nc3ncn(-c4ccc(F)cc4F)n3)c2)CC1 [Compound 28, 1-(2,4-difluorophenyl)-N-[3-fluoro-5-(4-methyl-1,4-diazepan-1-yl)phenyl]-1,2,4-triazol-3-amine] | – | – | ≤ 1 | ≤ 1 | – |
| COc1cc(F)cc(-n2cnc(Nc3cc(C)cc(N4CCN(C)CC4)c3)n2)c1 [Compound 395, 1-(3-fluoro-5-methoxy-phenyl)-N-[3-methyl-5-(4-methylpiperazin-1-yl)phenyl]-1,2,4-triazol-3-amine] | 10 to 100 | ≤ 1 | – | – | – |
| COc1cc(Nc2ncn(-c3cc(F)cc(C(F)(F)F)c3)n2)cc(N2CCN(C3COC3)CC2)c1 [Compound 754, 1-[3-fluoro-5-(trifluoromethyl)phenyl]-N-[3-methoxy-5-[4-(oxetan-3-yl)piperazin-1-yl]phenyl]-1,2,4-triazol-3-amine] | 10 to 100 | 1 to 10 | – | – | – |
| Cc1cc(Nc2ncn(-c3ccc(F)cc3)n2)cc(OC2CCN(C3COC3)CC2)c1 [Compound 201, 1-(4-fluorophenyl)-N-[3-methyl-5-[[1-(oxetan-3-yl)-4-piperidyl]oxy]phenyl]-1,2,4-triazol-3-amine] | – | – | 1000 to 10000 | ≤ 1 | – |
| Fc1cc(F)cc(-n2cnc(Nc3cc(N4CCN(C5COC5)CC4)cc(Cl)n3)n2)c1 [Compound 733, 6-chloro-N-[1-(3,5-difluorophenyl)-1,2,4-triazol-3-yl]-4-[4-(oxetan-3-yl)piperazin-1-yl]pyridin-2-amine] | 1 to 10 | 1 to 10 | – | – | – |
| Cc1cc(Nc2ncn(-c3cc(F)cc(F)c3)n2)cc(N2CCN(C(C)(CO)CO)CC2)c1 [Compound 311, 2-[4-[3-[[1-(3,5-difluorophenyl)-1,2,4-triazol-3-yl]amino]-5-methyl-phenyl]piperazin-1-yl]-2-methyl-propane-1,3-diol] | – | – | ≤ 1 | ≤ 1 | – |
| Cc1cc(Nc2ncn(-c3cccnc3)n2)cc(C2COC2)c1 [Compound 270, N-[3-methyl-5-(oxetan-3-yl)phenyl]-1-(3-pyridyl)-1,2,4-triazol-3-amine] | – | – | 100 to 1000 | 100 to 1000 | – |
| Cc1cc(Nc2ncn(-c3cc(F)cc(F)c3)n2)cc(N2CCN(CCCN(C)C)CC2)c1 [Compound 747, 1-(3,5-difluorophenyl)-N-[3-[4-[3-(dimethylamino)propyl]piperazin-1-yl]-5-methyl-phenyl]-1,2,4-triazol-3-amine] | ≤ 1 | ≤ 1 | – | – | – |
| CCCc1cc(Nc2ncn(-c3cc(F)cc(F)c3)n2)cc(N2CCN(C3COC3)CC2)c1 [Compound 396, 1-(3,5-difluorophenyl)-N-[3-[4-(oxetan-3-yl)piperazin-1-yl]-5-propyl-phenyl]-1,2,4-triazol-3-amine] | 10 to 100 | 10 to 100 | – | – | – |
| Cc1cc(Nc2ncn(-c3cc(F)cc(F)c3)n2)cc(N2CCOC3(COC3)C2)c1 [Compound 724, 1-(3,5-difluorophenyl)-N-[3-(2,5-dioxa-8-azaspiro[3.5]nonan-8-yl)-5-methyl-phenyl]-1,2,4-triazol-3-amine] | 1 to 10 | 1 to 10 | – | – | – |
| CC(C)c1cc(Nc2ncn(-c3cc(F)cc(F)c3)n2)cc(N2CCN(C3COC3)CC2)c1 [Compound 359, 1-(3,5-difluorophenyl)-N-[3-isopropyl-5-[4-(oxetan-3-yl)piperazin-1-yl]phenyl]-1,2,4-triazol-3-amine] | – | – | 1000 to 10000 | ≤ 1 | – |
| Cc1cc(Nc2ncn(-c3cc(F)cc(F)c3)n2)cc(N2CC(CC(C)C)N3CCC[C@@H]3C2)c1 (stereo partly drawn) [Compound 29, N-[3-[(8aR)-4-isobutyl-3,4,6,7,8,8a-hexahydro-1H-pyrrolo[1,2-a]pyrazin-2-yl]-5-methyl-phenyl]-1-(3,5-difluorophenyl)-1,2,4-triazol-3-amine] | – | – | ≤ 1 | ≤ 1 | – |
| Cc1cc(N2CCN(C3COC3)CC2)cc(Nc2ncn(-c3cc(F)cc(F)c3)n2)c1F [Compound 587, 1-(3,5-difluorophenyl)-N-[2-fluoro-3-methyl-5-[4-(oxetan-3-yl)piperazin-1-yl]phenyl]-1,2,4-triazol-3-amine] | 1 to 10 | 10 to 100 | – | – | – |
| Cc1cc(Nc2ncn(-c3cc(F)cc(F)c3)n2)cc(N2CCN(C3CS(=O)(=O)C3)CC2)c1 [Compound 228, 1-(3,5-difluorophenyl)-N-[3-[4-(1,1-dioxothietan-3-yl)piperazin-1-yl]-5-methyl-phenyl]-1,2,4-triazol-3-amine] | – | – | 10 to 100 | 100 to 1000 | – |

Source: patent publication US10766869B2, “Triazoles for the treatment of demyelinating dieases” (Vertex Pharmaceuticals Incorporated, priority 2015, dated 2020)
